Measured values as given in patent US20250382274A1, “COMPOSITIONS AND METHODS FOR THE TREATMENT OF PARKINSON'S AND GAUCHER DISEASE” (CHILDREN'S HOSPITAL MEDICAL CENTER, priority 2024, published 2025).

How the values were obtained:
[1] = target: T1, GCase in healthy human fibroblasts (Homo sapiens, UniProt P04062); assay: EC50 cell-based assay for GCase, healthy human fibroblasts (GCase cell); conditions: 5 days compound treatment (0-20 μM)
T1 construct: Healthy human fibroblasts (GCase cell); endogenous in cells; host or cells: healthy human fibroblasts
T1 sequence (P04062 40-536): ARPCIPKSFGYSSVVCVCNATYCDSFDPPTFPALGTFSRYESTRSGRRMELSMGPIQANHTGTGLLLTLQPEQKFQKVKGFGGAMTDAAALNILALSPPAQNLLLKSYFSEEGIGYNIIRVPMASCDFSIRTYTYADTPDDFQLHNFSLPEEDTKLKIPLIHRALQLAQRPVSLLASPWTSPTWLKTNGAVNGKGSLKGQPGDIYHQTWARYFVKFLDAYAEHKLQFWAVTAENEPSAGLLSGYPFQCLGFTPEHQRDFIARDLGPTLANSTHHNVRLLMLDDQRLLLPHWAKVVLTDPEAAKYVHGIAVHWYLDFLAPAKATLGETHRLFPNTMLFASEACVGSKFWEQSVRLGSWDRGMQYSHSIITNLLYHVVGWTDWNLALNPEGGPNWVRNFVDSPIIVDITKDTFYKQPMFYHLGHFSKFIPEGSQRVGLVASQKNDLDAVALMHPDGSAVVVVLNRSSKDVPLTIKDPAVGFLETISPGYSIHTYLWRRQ
Description: In cell assays, GCase activity measurements were carried out on harvested cell pellets on the 5th day of Compound treatment. Healthy human fibroblasts (GCase cell), mutant N370/ΔGG (GCase N370S) or L444P/L444P (GCase L444P) were incubated with the Compound (0-20 μM) for 5 days with 15% fetal bovine serum (FBS) in Dulbecco's Modified Eagle Medium (DMEM) in 100 mm culture dishes. Fresh Medium with Compound were replaced every other day. On the 5th day of Compound treatment, harvested cell pellets were lysed with 1% Na-taurocholate (Tc) and 1% Triton X-100 (Tx), and mixed with the reaction buffer which contained 0.025 mM Citric phosphate buffer (pH 5.6), 0.25% Tc/Tx and 4 mM 4-MuGlu, then incubated at 37° C. for 1 hour. EC50 represents the concentration of a Compound that produces 50% of its maximal response in the cell-based GCase activity assay.
(§1) GCase activities were determined fluorometrically with 4-MuGlu. The relative fluorescence unit (RFU) of 4-MuGlu standard curve is generated with the plate reader (M5, Molecular Devise) as 1 n mole=56500 RFU. The human mutant Gaucher fibroblasts were purchased from Coriell Institute (Camden, NJ): N370/ΔGG (Cat #: GM00852) and L444P/L444P (cat #: GM00877)

[2] = target: T2, GCase (purified enzyme, Velaglucerase alfa, VPRIV) (Homo sapiens, UniProt P04062); assay: GCase AC50 enzyme activity assay; assay type: biochemical; conditions: pH 5.6, 4-MuGlu substrate, compounds 0-40 μM
T2 construct: purchased Shire Human Genetic Therapies, Cambridge, MA
T2 sequence (P04062 40-536): T1 sequence (P04062 40-536)
Description: An in vitro enzyme assay was performed through a dose response curve of Compounds (0-40 μM) with purified enzyme (Velaglucerase alfa, VPRIV®, Shire Human Genetic Therapies, Cambridge, MA) in citric phosphate [0.025 mM] buffer (pH 5.6) where 4-MuGlu [4 mM] was the substrate. Compounds were pre-incubated with the enzyme for 40 minutes at room temperature prior to substrate addition, and then incubated at 37° C. for 1 hour. AC50 represents the concentration of a Compound that produces 50% of its maximal response in the in vitro GCase activity assay.
as §1

With `CN(CC1CCCO1)C(=O)c1ccccc1OCC(=O)Nc1ccc(Br)cc1` (centres unmarked) [Compound 1, 2-((4-bromophenylcarbamoyl)methoxy)-N-((tetrahydrofuran-2-yl)methyl)-N-methylbenzamide] as the compound, how does the EC50 [1] read?
Its EC50 is under 10 µM.

And the AC50 [2]?
The AC50 was under 10 µM.

With `O=C(Nc1ccc(Br)cc1)c1cc2cccc(C(=O)NCC3CCCO3)c2o1` (centres unmarked) [Compound 3, N2-(4-bromophenyl)-N7-((tetrahydrofuran-2-yl)methyl)benzofuran-2,7-dicarboxamide] as the compound, how does the EC50 [1] read?
Its EC50 is under 10 µM.

What about the AC50 [2] of the same compound?
Its AC50 is under 10 µM.

With `COc1ccc(NC(=O)c2cc3cccc(C(=O)NCC4CCCO4)c3o2)cc1` (centres unmarked) [Compound 5, N7-((tetrahydrofuran-2-yl)methyl)-N2-(4-methoxyphenyl)benzofuran-2,7-dicarboxamide] as the compound, how does the EC50 [1] read?
Its EC50 is under 10 µM.

What about the AC50 [2] of the same compound?
The AC50 was under 10 µM.

For `COc1c(C(=O)Nc2ccc(Br)cc2)oc2c(C(=O)NCC3CCCO3)cccc12` (centres unmarked) [Compound 6, N2-(4-bromophenyl)-N7-((tetrahydrofuran-2-yl)methyl)-3-methoxybenzofuran-2,7-dicarboxamide], which EC50 [1] is on record?
The EC50 was under 10 µM.

And the AC50 [2]?
The AC50 was under 10 µM.

Which EC50 [1] does the source give for `COc1ccc(NC(=O)C(C)(C)Oc2ccccc2C(=O)N2CCOCC2)cc1` [Compound 7] here?
Its EC50 is under 10 µM.

What about the AC50 [2] of the same compound?
Its AC50 is under 10 µM.

Which results are given for `CN(C)Cc1ccc(NC(=O)c2nc3cccc(C(=O)NCC4CCCO4)c3o2)cc1` (centres unmarked) [Compound 9, N2-(4-((dimethylamino)methyl)phenyl)-N7-((tetrahydrofuran-2-yl)methyl)benzo[d]oxazole-2,7-dicarboxamide]?
EC50 [1]: < 10 µM; AC50 [2]: < 10 µM

With `COc1ccc(NC(=O)Cc2nnc(NCC3CCCO3)c3ccccc23)cc1` (centres unmarked) [Compound 11, 2-(1-((tetrahydrofuran-2-yl)methylamino)phthalazin-4-yl)-N-(4-methoxyphenyl)acetamide] as the compound, how does the EC50 [1] read?
Its EC50 is under 10 µM.

What about the AC50 [2] of the same compound?
Its AC50 is under 10 µM.

For `COc1ccc2[nH]c(COc3ccccc3C(=O)NCC3CCCO3)nc2c1` (centres unmarked) [Compound 12, 2-((5-methoxy-1H-benzo[d]imidazol-2-yl)methoxy)-N-((tetrahydrofuran-2-yl)methyl)benzamide], which EC50 [1] is on record?
Its EC50 is under 10 µM.

What about the AC50 [2] of the same compound?
The AC50 was under 10 µM.

`COc1ccc(NC(=O)c2nc3cc(F)cc(C(=O)NCC4CCO4)c3o2)cc1` (centres unmarked) [Compound 13, 5-fluoro-N2-(4-methoxyphenyl)-N7-(oxetan-2-ylmethyl)-1,3-benzoxazole-2,7-dicarboxamide] was tested. Which EC50 [1] did it give?
Its EC50 is under 10 µM.

What about the AC50 [2] of the same compound?
The AC50 was under 10 µM.

For `COc1ccc(NC(=O)c2nc3cc(F)cc(C(=O)NCC4CCO4)c3o2)cc1F` (centres unmarked) [Compound 14, 5-fluoro-N2-(3-fluoro-4-methoxy-phenyl)-N7-(oxetan-2-ylmethyl)-1,3-benzoxazole-2,7-dicarboxamide], which AC50 [2] is on record?
The AC50 was under 10 µM.

`COc1ccc(NC(=O)c2nc3c(F)ccc(C(=O)NCC4CCO4)c3o2)cc1` (centres unmarked) [Compound 15, 4-fluoro-N2-(4-methoxyphenyl)-N7-(oxetan-2-ylmethyl)-1,3-benzoxazole-2,7-dicarboxamide] was tested. Which AC50 [2] did it give?
Its AC50 is under 10 µM.

With `O=C(Nc1ccc(CN2CCOCC2)cc1)c1nc2cccc(C(=O)NCC3CCO3)c2o1` (centres unmarked) [Compound 16, N2-[4-(morpholinomethyl)phenyl]-N7-(oxetan-2-ylmethyl)-1,3-benzoxazole-2,7-dicarboxamide] as the compound, how does the AC50 [2] read?
The AC50 was under 10 µM.

With `CC(C)(Oc1ccccc1C(=O)NCC1CCO1)C(=O)NC1CCN(CC(F)F)CC1` (centres unmarked) [Compound 17, 2-[2-[[1-(2,2-difluoroethyl)-4-piperidyl]amino]-1,1-dimethyl-2-oxo-ethoxy]-N-(oxetan-2-ylmethyl)benzamide] as the compound, how does the EC50 [1] read?
Its EC50 is under 10 µM.

And the AC50 [2]?
Its AC50 is under 10 µM.

How did the EC50 [1] turn out when `CC(C)(Oc1ccccc1C(=O)NCC1CCO1)C(=O)NC1CCN(C2COC2)CC1` (centres unmarked) [Compound 18, 2-[1,1-dimethyl-2-[[1-(oxetan-3-yl)-4-piperidyl]amino]-2-oxo-ethoxy]-N-(oxetan-2-ylmethyl)benzamide] was run?
Its EC50 is under 10 µM.

What about the AC50 [2] of the same compound?
The AC50 was under 10 µM.

What does the source list for `O=C(NC1CCOCC1)c1nc2cc(F)cc(C(=O)NCC3CCO3)c2o1` (centres unmarked) [Compound 19, 5-fluoro-N2-(tetrahydro-2H-pyran-4-yl)-N7-((oxetan-2-yl)methyl)benzo[d]oxazole-2,7-dicarboxamide]?
EC50 [1]: < 10 µM; AC50 [2]: < 10 µM

What does the source list for `Cc1cc(NC(=O)c2nc3cc(F)cc(C(=O)NCC4CCO4)c3o2)ccn1` (centres unmarked) [Compound 20, 5-fluoro-N2-(2-methylpyridin-4-yl)-N7-((oxetan-2-yl)methyl)benzo[d]oxazole-2,7-dicarboxamide]?
EC50 [1]: < 10 µM; AC50 [2]: < 10 µM

`O=C(Nc1ccc(Cl)cc1)c1nc2cc(F)cc(C(=O)NCC3CCO3)c2o1` (centres unmarked) [Compound 21, N2-(4-chlorophenyl)-5-fluoro-N7-((oxetan-2-yl)methyl)benzo[d]oxazole-2,7-dicarboxamide] was tested. Which EC50 [1] did it give?
The EC50 was under 10 µM.

What about the AC50 [2] of the same compound?
Its AC50 is under 10 µM.

With `O=C(Nc1ccc(OC(F)(F)F)cc1)c1nc2cc(F)cc(C(=O)NCC3CCO3)c2o1` (centres unmarked) [Compound 22, 5-fluoro-N7-((oxetan-2-yl)methyl)-N2-(4-(trifluoromethoxy)phenyl)benzo[d]oxazole-2,7-dicarboxamide] as the compound, how does the EC50 [1] read?
Its EC50 is under 10 µM.

What about the AC50 [2] of the same compound?
Its AC50 is under 10 µM.

Which EC50 [1] does the source give for `CN(CC1CCO1)C(=O)c1cc(F)ccc1OC(C)(C)C(=O)NC1CCOCC1` (centres unmarked) [Compound 23, 2-(2-(tetrahydro-2H-pyran-4-ylcarbamoyl)propan-2-yloxy)-5-fluoro-N-methyl-N-((oxetan-2-yl)methyl)benzamide] here?
The EC50 was under 10 µM.

What about the AC50 [2] of the same compound?
The AC50 was under 10 µM.

How did the EC50 [1] turn out when `CN1CCC(NC(=O)C(C)(C)Oc2ccc(F)cc2C(=O)NCC2CCO2)C(F)(F)C1` (centres unmarked) [Compound 24, 2-(2-(3,3-difluoro-1-methylpiperidin-4-ylcarbamoyl)propan-2-yloxy)-5-fluoro-N-((oxetan-2-yl)methyl)benzamide] was run?
The EC50 was under 10 µM.

What about the AC50 [2] of the same compound?
Its AC50 is under 10 µM.

With `O=C(NCC1CCO1)c1cc(F)ccc1OCc1nc2cc(Cl)ccc2[nH]1` (centres unmarked) [Compound 25, 2-((6-chloro-1H-benzo[d]imidazol-2-yl)methoxy)-5-fluoro-N-((oxetan-2-yl)methyl)benzamide] as the compound, how does the EC50 [1] read?
The EC50 was under 10 µM.

What about the AC50 [2] of the same compound?
Its AC50 is under 10 µM.

For `CC(C)(Oc1ccc(F)cc1C(=O)NCC1CCO1)C(=O)NCCN1CCOCC1` (centres unmarked) [Compound 27, 2-[1,1-dimethyl-2-(2-morpholinoethylamino)-2-oxo-ethoxy]-5-fluoro-N-(oxetan-2-ylmethyl)benzamide], which EC50 [1] is on record?
The EC50 was under 10 µM.

What about the AC50 [2] of the same compound?
Its AC50 is under 10 µM.

Which EC50 [1] does the source give for `O=C(NC1CCC(F)(F)CC1)c1nc2cc(F)cc(C(=O)NCC3CCO3)c2o1` (centres unmarked) [Compound 28, N2-(4,4-difluorocyclohexyl)-5-fluoro-N7-(oxetan-2-ylmethyl)benzo[d]oxazole-2,7-dicarboxamide] here?
The EC50 was under 10 µM.

What about the AC50 [2] of the same compound?
The AC50 was 10 to 100 µM.

`O=C(NC1CCN(CC(F)(F)F)CC1)c1nc2cc(F)cc(C(=O)NCC3CCO3)c2o1` (centres unmarked) [Compound 29, 5-fluoro-N7-(oxetan-2-ylmethyl)-N2-(1-(2,2,2-trifluoroethyl)piperidin-4-yl)benzo[d]oxazole-2,7-dicarboxamide] was tested. Which AC50 [2] did it give?
Its AC50 is 10 to 100 µM.

With `COc1ccc(NC(=O)N2Cc3cccc(C(=O)NCC4CCO4)c3C2)cc1` (centres unmarked) [Compound 30, N2-(4-methoxyphenyl)-N4-((oxetan-2-yl)methyl)isoindoline-2,4-dicarboxamide] as the compound, how does the EC50 [1] read?
The EC50 was under 10 µM.

And the AC50 [2]?
Its AC50 is under 10 µM.

Which AC50 [2] does the source give for `CC(C)(Oc1ccc(F)cc1C(=O)NCC1CCO1)C(=O)Nc1ccc(OC(F)F)cc1` (centres unmarked) [Compound 31, 2-((1-((4-(difluoromethoxy)phenyl)amino)-2-methyl-1-oxopropan-2-yl)oxy)-5-fluoro-N-(oxetan-2-ylmethyl)benzamide] here?
Its AC50 is under 10 µM.
